Test system: human hormone-resistant prostatic cancer (PC-3)
Assay: Example 10: FK330 with docetaxel in PC-3 tumor-bearing mice
Assay type: in vivo, nude mice
Conditions: FK330 100 mg/kg bid p.o. + docetaxel 10 mg/kg/day i.v. (2 days each cycle)
Experimental: The dose of FK330 is expressed in terms of the weight of a simple substance (non-hydrate). Docetaxel (a docetaxel hydrate injectable preparation (Taxotere (trademark), for intravenous infusion)) was purchased from Sanofi-Aventis SA, and was used as docetaxel.
FK330 was suspended (20 mg/mL) in a 0.5% aqueous methyl cellulose solution (0.5% MC), and was orally administered. Docetaxel was prepared to a concentration of 20 mg/mL with 95% ethanol, and then diluted to 1 mg/mL with physiological saline for injection (Otsuka Pharmaceutical Group) immediately before administration and intravenously administered through the tail vein.
Human hormone-resistant prostatic cancer-derived PC-3 (CRL-1435) was obtained from American Type Culture Collection (VA, USA). […]
The body weight and the tumor diameter, determined by using a digital caliper, were measured twice a week. The tumor volume was calculated from the calculation formula for ellipsoid volume of (major axis×[minor axis]^2×0.5).
The results are expressed as the mean value (Mean)±standard error (SEM). […] Using the actual measured values of the tumor volume at each measurement time point, an unpaired statistical test (Student's t-test) of the difference between two groups was carried out between a single administration group and a combined use group. […]

O=C(/C=C/c1ccc(Cl)cc1)N[C@@H](Cc1ccccn1)C(=O)NCC(=O)N1CCC(Oc2cc(C(F)(F)F)ncn2)CC1 [FK330, N^2-[(2E)-3-(4-chlorophenyl)-2-propenoyl]-N-[2-oxo-2-(4-{[6-(trifluoromethyl)pyrimidin-4-yl]oxy}piperidin-1-yl)ethyl]-3-pyridin-2-yl-L-alaninamide]
tumor volume reduction ratio compared with the docetaxel-only group (Day 27, P<0.062): 49.3% | tumor volume reduction ratio compared with the docetaxel-only group (Day 51, P<0.05): 42.0%

From US20140066385A1, “METHOD FOR TREATING CANCER BY COMBINED USE OF DRUGS” (Astellas Pharma Inc., priority 2011, published 2014)
